Data from article PMC6201879, “N-substituted phenylbenzamides of the niclosamide chemotype attenuate obesity related changes in high fat diet fed mice” (PLoS ONE, 2018).
Read-outs that look alike come from different tables or passages of the source.

Legend:
PH5CH8 liver cells = assay: High-throughput hepatic de novo lipogenesis (DNL) assay, high content imaging of steatotic phenotype; assay type: cell-based, human; conditions: for IC50: Homo sapiens
[1] = Metabolic stability in human liver microsomes; assay type: in vitro ADME; conditions: for Remaining Percentage of 60 min (%), Human, Tested Sample: 0.5mg/ml microsomes and 1mM NADPH; for Remaining Percentage of 60 min (%), Human, Negative Control: 0.5mg/ml microsomes without NADPH; for Remaining Percentage of 60 min (%), Human, Heat-inactivated Control: heat inactivated microsomes without NADPH
Description: Three experiments were performed with 1) 0.5mg/ml microsomes and 1mM NADPH, 2) 0.5mg/ml microsomes without NADPH and 3) 0.5mg/ml heat inactivated microsomes without NADPH in 100mM phosphate buffer, containing 5mM magnesium chloride. […] At the indicated time points, 50μl samples were removed and stopped by addition of 4 volumes of cold acetonitrile with internal standards, 100nM alprazolam, 200nM labetalol and 2μM ketoprofen. The samples were centrifuged at 3,220 g for 40 minutes and aliquots of 100μl were subsequently diluted with 100μl of ultra-pure water and analyzed by LC/MS/MS using a (Shimadzu corporation) LC system coupled to a Shimadzu Triple Quad 5500 mass spectrometer with an ESI interface. The LC system used a Waters XSelect HSS T3 C18, 2.5μm, 2.1 x 50 mm column eluted with one of two methods using mobile phases A (water, 0.1% formic acid) and B (acetonitrile, 0.1% formic acid). […] The Shimadzu Triple Quad 5500 MS was operated with the following parameters: Ion source: Turbo spray; Ionization mode: ESI; Scan type: MRM; Collision gas: 10 L/min; Curtain gas: 30 L/min; Nebulize gas: 50 L/min; Auxiliary gas: 50 L/min; Temperature: 500°C; Ionspray voltage: +5500 V (positive MRM). All experiments were performed in duplicate. Data were analyzed using Microsoft excel, and peak areas were determined from extracted ion chromatograms.

p-AMPK Thr-172 = assay: Western blot of p-AMPK Thr-172 in liver of HFD-fed mice; conditions: HFD fed-DIO mice; 10mg/kg for 12 days; vs sham
[2] = system: Salmonella typhimurium (TA98, TA100, TA1535 and TA1537) and Escherichia coli (WP2 uvrA (pKM101)); assay: Ames assay, overall outcome and cytotoxicity across strains; conditions: for cytotoxicity in the Ames assay: relative to the negative control, presence and absence of S9 mix
[3] = system: fatty acid synthase (FAS); assay: Western blot of fatty acid synthase in liver of HFD-fed mice; conditions: HFD fed-DIO mice; 10mg/kg for 12 days; vs sham
[4] = system: carbonic anhydrase-III (CAIII); assay: Western blot of carbonic anhydrase III in liver of HFD-fed mice; conditions: HFD fed-DIO mice; 10mg/kg for 12 days; vs sham
[5] = Body weight changes in HFD-fed mice; assay type: in vivo, mouse; conditions: 10mg/kg I.P daily for 12 days
Description: We next measured body weight changes in HFD-fed animals prior to treatment with niclosamide or phenylbenzamide derivatives and after 12 days, prior to sacrifice. During this time, all animals (including sham) lost some weight.
20-week old animals were treated IP with 500199 at 10 or 25mg/kg by IP over a time-course of 9 days. At day 0, 3, 6 and 9 animals were weighed and tissue samples were collected for standard histological scoring of hepatic steatosis and automated quantitative histomorphometric scoring.

[6] = system: Phosphorylated AMPK (Thr-172); assay: High-throughput phosphorylated AMPK (Thr-172) TR-FRET assay in HepG2 cells; assay type: cell-based, human; conditions: HepG2 TR-FRET dose response between 0.625 and 10 μM, 4 hours; also Western blot
Description: Phosphorylated AMPK (Thr-172) TR-FRET Assay Kit was purchased from CisBio (Bedford MA). HepG2 [HB-8065] cells were trypsinized, harvested and counted using Countess II FL automated cell counter (Thermo Fisher Scientific). Cells were then seeded in Poly-D-Lysine coated 96-well black optical plates at a concentration of 10,000 cells per well in 50μL growth medium. After 24-hours, the media was removed and replaced with 50μL of fresh growth media containing compounds. Five concentrations of each compound were prepared, ranging from 10 to 0.625 μM and applied to columns 2–11 of the cell plate. Control wells contained DMSO (column 1-minimum response control) or 500199 (column 12-maximum response control). The final DMSO concentration was 0.45%. Cells were cultured for 4 hours before cells were lysed in 50μL of lysis buffer for 30 minutes at room temperature according to assays protocol. Following lysis, 16μL of lysate was transferred to white 384 well small volume assay plate and 4μL of antibody dyes were added per assay protocol.
Following overnight incubation, quantitation was performed on a PHERAstar (BMG), using the HTRF protocol with an excitation wavelength of 337nm and emission wavelengths of 665nm and 620nm. The ratio between emission spectra (665/620) was assessed for each well individually and averaged for triplicate samples. Data are presented as mean ratio ± SE. The differences between the control (DMSO) and the compound treated wells were analyzed using two-way ANOVA and Dunnett’s post hoc test. A value of p<0.05 was considered to be significant.
Fig 5 Validation of AMPK pathway activation by phenylbenzamide derivatives in HepG2 cells. A) Cells were seeded at 10,000 cells per well 24 hours prior to treating cells with indicated concentration of compound or DMSO (CTL) for 4 hours. 16μL of cell lysate was incubated with HTRF phospho-AMPK detection reagents and fluorescence emission read at 665nm and 620nm using a PHERAstar platereader. The mean and standard deviation of the HTRF Ratio from three replicate wells is shown. The unstimulated (DMSO) and positive controls lysates are shown in green and red respectively.

[7] = system: Salmonella typhimurium TA1537; conditions: for Mean Revertant Colony Counts TA-1537 SP9+: with S9; for Mean Revertant Colony Counts TA-1537 S9-: without S9
[8] = system: Escherichia coli WP2 uvrA (pKM101); assay: Ames assay, strain WP2 uvrA (pKM101); conditions: for Mean Revertant Colony Counts WP2 uvrA (pKM101) SP9+: with S9; for Mean Revertant Colony Counts WP2 uvrA (pKM101) S9-: without S9
[9] = PH5CH8 liver cells, 10-point dose response between 1μM and 1.9nM, read-out: IC50 (uM), inhibition of steatotic phenotype in DNL assay
[10] = S1 Table, SAR for N-Substituted Phenylbenzamides, read-out: IC50
[11] = S1 Table, SAR for N-Substituted Phenylbenzamides
[12] = any concentration tested, vs negative control

CC(C)(C)c1ccc(O)c(C(=O)Nc2ccc(C(=O)O)cc2Cl)c1 [Compound 500200, 4-[(5-tert-butyl-2-hydroxybenzene)amido]-3-chlorobenzoic acid]
IC50 (PH5CH8 liver cells; [9]): 0.27 µM
IC50 (PH5CH8 liver cells; [10]): 0.034 µM
Active/Inactive (PH5CH8 liver cells; [11]): Active
Remaining Percentage of 60 min (%), Human, Tested Sample [1]: 84.5%
Remaining Percentage of 60 min (%), Human, Negative Control [1]: 110.2%
Remaining Percentage of 60 min (%), Human, Heat-inactivated Control [1]: 96.6%
phosphorylation of AMPK at Thr-172 in liver (p-AMPK Thr-172): stimulated phosphorylation of AMPK at Thr-172
Ames assay outcome (mutagenicity) [2]: negative
cytotoxicity in the Ames assay [2]: cytotoxicity was exhibited at the highest concentrations in both strains
FAS protein levels in liver [3]: reduced
CAIII protein levels in liver [4]: reduced

CC(C)(C)c1ccc(O)c(C(=O)Nc2ccc(C(=O)O)cc2C(F)(F)F)c1 [Compound 500873, 4-[(5-tert-butyl-2-hydroxy)amido]-3-(trifluoromethyl)benzoic acid]
IC50 (PH5CH8 liver cells; [9]): 0.005 µM
IC50 (PH5CH8 liver cells; [10]): 0.0046 µM
Active/Inactive (PH5CH8 liver cells; [11]): Active
Remaining Percentage of 60 min (%), Human, Tested Sample [1]: 64.2%
Remaining Percentage of 60 min (%), Human, Negative Control [1]: 97.7%
Remaining Percentage of 60 min (%), Human, Heat-inactivated Control [1]: 91.1%
body weight change vs sham [5]: lost weight but this loss failed to reach significance

CC(C)(C)c1cc(C(=O)Nc2ccc(C(=O)O)cc2Cl)c(O)c(C(C)(C)C)c1 [Compound 600453, 3-Chloro-4-[(3,5-di-tert-butyl-2-hydroxybenzene)amido]benzoic acid]
IC50 (PH5CH8 liver cells; [9]): 0.14 µM
IC50 (PH5CH8 liver cells; [10]): 0.091 µM
Active/Inactive (PH5CH8 liver cells; [11]): Active
phosphorylation of AMPK (Figs 5 and 4D) [6]: stimulated phosphorylation of AMPK
Remaining Percentage of 60 min (%), Human, Tested Sample [1]: 58.8%
Remaining Percentage of 60 min (%), Human, Negative Control [1]: 92.2%
Remaining Percentage of 60 min (%), Human, Heat-inactivated Control [1]: 93.7%
body weight change vs sham [5]: lost significantly more weight
Mean Revertant Colony Counts TA-1537 SP9+ ([7]; 1.5 ug/Well): 2.3
Mean Revertant Colony Counts TA-1537 S9- ([7]; 1.5 ug/Well): 0.7
Mean Revertant Colony Counts TA-1537 SP9+ ([7]; 4 ug/Well): 3.3
Mean Revertant Colony Counts TA-1537 S9- ([7]; 4 ug/Well): 1.3
Mean Revertant Colony Counts TA-1537 SP9+ ([7]; 10 ug/Well): 1.7
Mean Revertant Colony Counts TA-1537 S9- ([7]; 10 ug/Well): 2.3
Mean Revertant Colony Counts TA-1537 SP9+ ([7]; 25 ug/Well): 1.7
Mean Revertant Colony Counts TA-1537 S9- ([7]; 25 ug/Well): 1.3
Mean Revertant Colony Counts TA-1537 SP9+ ([7]; 64 ug/Well): 1.0
Mean Revertant Colony Counts TA-1537 S9- ([7]; 64 ug/Well): 0.3
Mean Revertant Colony Counts TA-1537 SP9+ ([7]; 160 ug/Well): 3.3
Mean Revertant Colony Counts TA-1537 S9- ([7]; 160 ug/Well): 0.0
Mean Revertant Colony Counts TA-1537 SP9+ ([7]; 400 ug/Well): 0.7
Mean Revertant Colony Counts TA-1537 S9- ([7]; 400 ug/Well): 1.0
Mean Revertant Colony Counts TA-1537 SP9+ ([7]; 1000 ug/Well): 3.7
Mean Revertant Colony Counts TA-1537 S9- ([7]; 1000 ug/Well): 0.3
fold increase in the mean number of revertant colonies, TA1537 [7, 12]: < 3 fold
Mean Revertant Colony Counts WP2 uvrA (pKM101) SP9+ ([8]; 1.5 ug/Well): 36.0
Mean Revertant Colony Counts WP2 uvrA (pKM101) S9- ([8]; 1.5 ug/Well): 31.7
Mean Revertant Colony Counts WP2 uvrA (pKM101) SP9+ ([8]; 4 ug/Well): 35.0
Mean Revertant Colony Counts WP2 uvrA (pKM101) S9- ([8]; 4 ug/Well): 20.7
Mean Revertant Colony Counts WP2 uvrA (pKM101) SP9+ ([8]; 10 ug/Well): 31.7
Mean Revertant Colony Counts WP2 uvrA (pKM101) S9- ([8]; 10 ug/Well): 29.3
Mean Revertant Colony Counts WP2 uvrA (pKM101) SP9+ ([8]; 25 ug/Well): 33.3
Mean Revertant Colony Counts WP2 uvrA (pKM101) S9- ([8]; 25 ug/Well): 15.7
Mean Revertant Colony Counts WP2 uvrA (pKM101) SP9+ ([8]; 64 ug/Well): 28.0
Mean Revertant Colony Counts WP2 uvrA (pKM101) S9- ([8]; 64 ug/Well): 23.0
Mean Revertant Colony Counts WP2 uvrA (pKM101) SP9+ ([8]; 160 ug/Well): 23.0
Mean Revertant Colony Counts WP2 uvrA (pKM101) S9- ([8]; 160 ug/Well): 20.0
Mean Revertant Colony Counts WP2 uvrA (pKM101) SP9+ ([8]; 400 ug/Well): 15.3
Mean Revertant Colony Counts WP2 uvrA (pKM101) S9- ([8]; 400 ug/Well): 9.0
Mean Revertant Colony Counts WP2 uvrA (pKM101) SP9+ ([8]; 1000 ug/Well): 9.0
Mean Revertant Colony Counts WP2 uvrA (pKM101) S9- ([8]; 1000 ug/Well): 3.7
fold increase in the mean number of revertant colonies, WP2 uvrA (pKM101) [8, 12]: < 2 fold
phosphorylation of AMPK at Thr-172 in liver (p-AMPK Thr-172): stimulated phosphorylation of AMPK at Thr-172
Ames assay outcome (mutagenicity) [2]: negative
cytotoxicity in the Ames assay [2]: no cytotoxicity was exhibited at any concentration
FAS protein levels in liver [3]: reduced
CAIII protein levels in liver [4]: reduced

CC(C)(C)c1ccc(O)c(C(=O)Nc2cc(C(=O)O)ccc2Cl)c1 [Compound 600494, 3-{[2-Hydroxy-5-(tert-butyl)benzene]amido}-4chloro-benzoic acid]
IC50 (PH5CH8 liver cells; [9]): 0.004 µM
IC50 (PH5CH8 liver cells; S1 Table. SAR for N-Substituted Phenylbenzamides, read-out: IC50): 0.0039 µM
Active/Inactive (PH5CH8 liver cells; S1 Table. SAR for N-Substituted Phenylbenzamides): Active
Remaining Percentage of 60 min (%), Human, Tested Sample [1]: 99.4%
Remaining Percentage of 60 min (%), Human, Negative Control [1]: 92.8%
Remaining Percentage of 60 min (%), Human, Heat-inactivated Control [1]: 114.2%
